For 23 compounds, EC50 results are on record in US11377425B1, “Small molecule modulators of IL-17” (LEO Pharma A/S, priority 2018, dated 2022).

The experiment addresses T1, human IL-17AA (Homo sapiens, UniProt Q16552).
T1 construct: host or cells: HEK (human embryonic kidney) cells
T1 sequence (Q16552 24-155): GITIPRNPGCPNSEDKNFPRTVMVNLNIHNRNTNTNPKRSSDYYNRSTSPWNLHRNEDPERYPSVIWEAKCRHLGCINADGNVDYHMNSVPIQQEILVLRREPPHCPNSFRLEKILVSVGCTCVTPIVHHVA
The experiment can be described thus: IL-8 release assay in human epithelial keratinocytes adult (HEKa). It counts as cell-based. The following applies: HEKa cells, 3 ng/mL HEK-human IL-17AA + 10 ng/mL human TNFalpha; read-out: Rel EC50 IL-8 release assay. The procedure, abridged: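 IL-8 release, quantified by HTRF and normalized to controls, reports IL-17 signaling in HEKa cells treated with compound plus final 3 ng/mL IL-17AA (HEK-derived) and 10 ng/mL TNF-alpha for 68-72 h; TNF-alpha-only wells set 100% inhibition. Four-parameter logistic fits (r^2>0.9) give relative IC50 and Emax; PrestoBlue flags cytotoxicity.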

Bounds are passed on as bounds.

In the case of `CCn1nccc1C(=O)NC(C(=O)Nc1ccc(-c2c(C)n[nH]c2C)cc1)C(C1CCC1)C1CCC1` (racemic) [Example 35, N-[1-[di(cyclobutyl)methyl]-2-[4-(3,5-dimethyl-1H-pyrazol-4-yl)anilino]-2-oxo-ethyl]-2-ethyl-pyrazole-3-carboxamide], the EC50 (in general, the concentration needed to bring the measured effect to its halfway point) is less than 100 nM.
Under `Cc1n[nH]c(C)c1-c1ccc(NC(=O)[C@@H](NC(=O)c2ccnn2C)[C@H]2CCCC(F)(F)C2)cc1` [Example 19, N-[(1S)-1-[(1S)-3,3-difluorocyclohexyl]-2-[4-(3,5-dimethyl-1H-pyrazol-4-yl)anilino]-2-oxo-ethyl]-2-methyl-pyrazole-3-carboxamide] stands 100 to 1000 nM; under `Cc1nc[nH]c1-c1ccc(NC(=O)[C@@H](NC(=O)c2ccnn2C(C)C)C(C2CC2)C2CC2)cc1` [Example 379, N-[(1S)-1-(dicyclopropylmethyl)-2-[4-(4-methyl-1H-imidazol-5-yl)anilino]-2-oxo-ethyl]-2-isopropyl-pyrazole-3-carboxamide], greater than 1000 nM.
Then `Cc1n[nH]c(C)c1-c1ccc(NC(=O)[C@@H](NC(=O)OCc2cccnc2)C2CCCCC2)cc1` [Example 430, 3-pyridylmethyl N-[(1S)-1-cyclohexyl-2-[4-(3,5-dimethyl-1H-pyrazol-4-yl)anilino]-2-oxo-ethyl]carbamate], with 100 to 1000 nM.
Regarding `Cc1ncn(C)c1-c1ccc(NC(=O)[C@@H](NC(=O)OC(C)(C)C)C2CCCC2)cc1` [Example 87, tert-butyl N-[(1S)-1-cyclopentyl-2-[4-(3,5-dimethylimidazol-4-yl)anilino]-2-oxo-ethyl]carbamate], the 50% effective concentration (EC50) is greater than 1000 nM.
For the compound `Cc1n[nH]c(C)c1-c1ccc(NC(=O)[C@@H](NC(=O)c2ccnn2[C@@H](C)CO)[C@@H]2C[C@H](C)C[C@H](C)C2)cc1` [Example 141, N-[(1S)-1-[(3R,55)-3,5-dimethylcyclohexyl]-2-[4-(3,5-dimethyl-1H-pyrazol-4-yl)anilino]-2-oxo-ethyl]-2-[(1S)-2-hydroxy-1-methyl-ethyl]pyrazole-3-carboxamide], the EC50 is less than 100 nM.
Under `CCC(c1ccccc1)C(NC(=O)c1ccnn1C)C(=O)Nc1ccc(-c2c(C)n[nH]c2C)cc1` (single isomer, unassigned) [Example 227] stands greater than 1000 nM.
Then `CCc1n[nH]c(CC)c1-c1ccc(NC(=O)[C@@H](NC(=O)c2ccnn2[C@H](C)CO)C(C2CC2)C2CC2)cc1` [Example 395, N-[(1S)-1-(dicyclopropylmethyl)-2-[4-(3,5-diethyl-1H-pyrazol-4-yl)anilino]-2-oxo-ethyl]-2-[(1R)-2-hydroxy-1-methyl-ethyl]pyrazole-3-carboxamide], with less than 100 nM; and `Cc1n[nH]c(C)c1-c1ccc(NC(=O)C(NC(=O)c2ccnn2C)C(c2ccccc2)C2CCC2)cc1` (single isomer, unassigned) [Example 300, N-[1-[cyclobutyl(phenyl)methyl]-2-[4-(3,5-dimethyl-1H-pyrazol-4-yl)anilino]-2-oxo-ethyl]-2-methyl-pyrazole-3-carboxamide], with greater than 1000 nM.
Then `Cc1ncsc1CC(=O)N[C@H](C(=O)Nc1ccc(-c2c(C)n[nH]c2C)cc1)C1CCCCC1` [Example 51, (2S)-2-cyclohexyl-N-[4-(3,5-dimethyl-1H-pyrazol-4-yl)phenyl]-2-[[2-(4-methylthiazol-5-yl)acetyl]amino]acetamide], with greater than 1000 nM; and `Cc1cnn(C)c1-c1ccc(NC(=O)[C@@H](NC(=O)c2ccnn2C(C)CO)C(C2CC2)C2CC2)cc1O` (stereo partly drawn) [Example 366, N-[(1S)-1-(dicyclopropylmethyl)-2-[4-(2,4-dimethylpyrazol-3-yl)-3-hydroxy-anilino]-2-oxo-ethyl]-2-(2-hydroxy-1-methyl-ethyl)pyrazole-3-carboxamide], with 100 to 1000 nM.
For the compound `CCn1ccc(C(=O)N[C@H](C(=O)Nc2ccc(-c3c(C)n[nH]c3C)cc2)C(C2CC2)C2CC2)n1` [Example 199, N-[(1S)-1-(dicyclopropylmethyl)-2-[4-(3,5-dimethyl-1H-pyrazol-4-yl)anilino]-2-oxo-ethyl]-1-ethyl-pyrazole-3-carboxamide], the EC50 is greater than 1000 nM.
Under `Cc1n[nH]c(C)c1-c1ccc(NC(=O)C(NC(=O)c2ccnn2C(C)C)C2CCC(C)(C)C2)cc1` (centres unmarked) [Example 265, N-[1-(3,3-dimethylcyclopentyl)-2-[4-(3,5-dimethyl-1H-pyrazol-4-yl)anilino]-2-oxo-ethyl]-2-isopropyl-pyrazole-3-carboxamide] stands 100 to 1000 nM; under `Cc1n[nH]c(C)c1-c1ccc(NC(=O)[C@@H](NC(=O)c2ccnn2C)C2CCCCC2)cc1` [Example 1, N-[(1S)-1-cyclohexyl-2-[4-(3,5-dimethyl-1H-pyrazol-4-yl)anilino]-2-oxo-ethyl]-2-methyl-pyrazole-3-carboxamide], 100 to 1000 nM; under `CC(C)[C@H](NC(=O)OC(C)(C)C)C(=O)Nc1ccc(-c2cncn2C)cc1` [Example 91, tert-butyl N-[(1S)-2-methyl-1-[[4-(3-methylimidazol-4-yl)phenyl]carbamoyl]propyl] carbamate], greater than 1000 nM.
In the case of `Cc1n[nH]c(C)c1-c1ccc(NC(=O)[C@@H](NC(=O)c2ccnn2C(C)CO)C2CCCCC2)cc1` (single isomer, unassigned) [Example 105], the concentration for a half-maximal effect (EC50) was 100 to 1000 nM.
Under `CC(C)n1nccc1C(=O)N[C@H](C(=O)Nc1ccc(-c2c(C(F)(F)F)ncn2C)cc1)C1CCCCC1` [Example 371A, N-[(1S)-1-cyclohexyl-2-[4-[3-methyl-5-(trifluoromethyl)imidazol-4-yl]anilino]-2-oxo-ethyl]-2-isopropyl-pyrazole-3-carboxamide] stands 100 to 1000 nM.
Then `Cc1n[nH]c(C)c1-c1ccc(NC(=O)C(NC(=O)c2ccnn2C)C2CCCCCCC2)cc1` (single isomer, unassigned) [Example 156, N-[1-cyclooctyl-2-[4-(3,5-dimethyl-1H-pyrazol-4-yl)anilino]-2-oxo-ethyl]-2-methyl-pyrazole-3-carboxamide], with less than 100 nM; and `Cc1n[nH]c(C)c1-c1ccc(NC(=O)[C@@H](NC(=O)c2ccnn2C(C)CO)C(C2CCC2)C2CCC2)cc1` (single isomer, unassigned) [Example 123], with less than 100 nM.
`CCn1nccc1C(=O)N[C@H](C(=O)Nc1ccc(-c2c(C)n[nH]c2C)cc1)C(C1CCC1)C1CCC1` [Example 36]: the concentration giving a half-maximal response (EC50) is less than 100 nM.
Under `CCc1n[nH]c(CC)c1-c1ccc(NC(=O)[C@@H](NC(=O)c2ccnn2CC)C(C2CC2)C2CC2)cc1` [Example 396, N-[(1S)-1-(dicyclopropylmethyl)-2-[4-(3,5-diethyl-1H-pyrazol-4-yl)anilino]-2-oxo-ethyl]-2-ethyl-pyrazole-3-carboxamide] stands less than 100 nM; under `Cc1n[nH]c(C)c1-c1ccc(NC(=O)[C@@H](NC(=O)c2ccnn2C)[C@@H]2CC(C)(C)CCC2(F)F)cc1` [Example 214, N-[(1S)-1-[(1S)-2,2-difluoro-5,5-dimethyl-cyclohexyl]-2-[4-(3,5-dimethyl-1H-pyrazol-4-yl)anilino]-2-oxo-ethyl]-2-methyl-pyrazole-3-carboxamide], less than 100 nM; under `Cc1n[nH]c(C)c1-c1ccc(NC(=O)[C@@H](NC(=O)N2CCCC2)C2CCCCC2)cc1` [Example 477, N-[(1S)-1-cyclohexyl-2-[4-(3,5-dimethyl-1H-pyrazol-4-yl)anilino]-2-oxo-ethyl]pyrrolidine-1-carboxamide], greater than 1000 nM.
